Assay results from US11033506B2, “External skin preparation comprising a core-shell structure” (SEKISUI CHEMICAL CO., LTD., priority 2017, dated 2021).

Experiment: Octanol/water partition coefficient
Assay type: physicochemical
Conditions: Log10 (octanol phase/aqueous phase), aqueous buffer solution of pH 7
From the text: Specifically, the octanol/water partition coefficient can be determined by calculation using an equation: Octanol/water partition coefficient=Log10 (concentration in an octanol phase/concentration in an aqueous phase).

| logD (octanol/aqueous buffer solution (pH 7)) | SMILES | octanol/water partition coefficient |
| --- | --- | --- |
| 4.5 | O=C1CCc2ccc(OCCCCN3CCN(c4cccc(Cl)c4Cl)CC3)cc2N1 [aripiprazole] | 4.5 |
| – | O=C(O)c1cc(/N=N/c2ccc(S(=O)(=O)Nc3ccccn3)cc2)ccc1O [sulfasalazine] | 2.3 |
